# From patent US20030129629A1, “Methods and compositions for the identification, assessment, prevention, and therapy of human cancers” (Millennium Pharmaceuticals, Inc., priority 2000, published 2003)
# Tested on: 60 cancer cell lines (NCI 60 cancer cell line series)
# Assay: NCI-DTP in vitro cancer screen, sulforhodamine B (SRB) growth inhibition, 48 hour exposure
# Format: cell-based, human
# Protocol: Cancer Cell Line Preparation. Sixty cancer cell lines were obtained from the National Cancer Institute Developmental Therapeutics Program (NCI-DTP). Procedures for growing cells and testing compounds have been described previously (Scudiero et al., Cancer Res. 1988, 48:4827-4833; Stinson et al., Anticancer Res.; Myers et al., Electrophoresis 1997, 18:647-653). Cells are plated on day 0 at a density individualized for each cell line so that they will generally be sub-confluent at the end of the assay period. On day 1, a compound is added in the format for a duplicate-well, 5-dose, ten-fold interval dose response study.
# No-drug, no-cell and no-growth controls are included. On day 3 the cells are processed for staining with sulforhodamine B (SRB), which reflects the amount of cell mass present at the end of a 48 hour exposure to the test agent. From dose response curves based on the SRB data, various parameters can be determined. […] More precisely, the quantity used in the calculation to be described is the potency measure −log{GI50}.
# Activity database (A). […] This subset of compounds was selected from the larger 23,000 compound database available from the DTP. The compounds were selected on the basis of their known mechanism of action and chemical structure. The average potency −log{GI50} was extracted from the comma-delimited text files available through the Web at http://www.nci.nih.gov/intra/lmp/jnwbio.html. Subsequently, these −log{GI50} values were inspected manually and classified as indicating either Low, Medium or High sensitivity to each compound.
compound,measurement,setting,value
Sc1ncnc2nc[nH]c12 [6-mercaptopurine],"classification of cell line as Low(1), Medium(2), High(3) sensitivity to compound",Breast BT-549 CL5013,1
same,"classification of cell line as Low(1), Medium(2), High(3) sensitivity to compound",Breast HS-578T CL5006,1
same,"classification of cell line as Low(1), Medium(2), High(3) sensitivity to compound",Breast MCF7(I) CL5001,2
same,"classification of cell line as Low(1), Medium(2), High(3) sensitivity to compound",Breast MCF7/ADRr CL5002,2
same,"classification of cell line as Low(1), Medium(2), High(3) sensitivity to compound",Breast MDA-MB-231 CL5005,1
same,"classification of cell line as Low(1), Medium(2), High(3) sensitivity to compound",Breast MDA-MB-435 CL5011,2
same,"classification of cell line as Low(1), Medium(2), High(3) sensitivity to compound",Breast MDA-N CL5012,2
same,"classification of cell line as Low(1), Medium(2), High(3) sensitivity to compound",Breast T-47D CL5014,2
same,"classification of cell line as Low(1), Medium(2), High(3) sensitivity to compound",CNS SF-268 CL12014,2
same,"classification of cell line as Low(1), Medium(2), High(3) sensitivity to compound",CNS SF-295 CL12015,2
same,"classification of cell line as Low(1), Medium(2), High(3) sensitivity to compound",CNS SF-539 CL12016,2
same,"classification of cell line as Low(1), Medium(2), High(3) sensitivity to compound",CNS SNB-19 CL12002,1
same,"classification of cell line as Low(1), Medium(2), High(3) sensitivity to compound",CNS SNB-75(I) CL12005,2
same,"classification of cell line as Low(1), Medium(2), High(3) sensitivity to compound",CNS U251(I) CL12009,2
same,"classification of cell line as Low(1), Medium(2), High(3) sensitivity to compound",Colon COLO-250 CL4010,2
same,"classification of cell line as Low(1), Medium(2), High(3) sensitivity to compound",Colon HCC-2998 CL4002,2
same,"classification of cell line as Low(1), Medium(2), High(3) sensitivity to compound",Colon HCT-15 CL4015,2
same,"classification of cell line as Low(1), Medium(2), High(3) sensitivity to compound",Colon HCT-116 CL4003,2
same,"classification of cell line as Low(1), Medium(2), High(3) sensitivity to compound",Colon HT29(I) CL4001,2
same,"classification of cell line as Low(1), Medium(2), High(3) sensitivity to compound",Colon KM12 CL4017,2
same,"classification of cell line as Low(1), Medium(2), High(3) sensitivity to compound",Colon SW-620 CL4009,2
same,"classification of cell line as Low(1), Medium(2), High(3) sensitivity to compound",Leukemia CCRF-CEM(I) CL7003,3
same,"classification of cell line as Low(1), Medium(2), High(3) sensitivity to compound",Leukemia HL-60(I) CL7008,2
same,"classification of cell line as Low(1), Medium(2), High(3) sensitivity to compound",Leukemia K562(I) CL7005,3
same,"classification of cell line as Low(1), Medium(2), High(3) sensitivity to compound",Leukemia MOLT-4 CL7006,2
same,"classification of cell line as Low(1), Medium(2), High(3) sensitivity to compound",Leukemia RPMI-8226(I) CL7010,2
same,"classification of cell line as Low(1), Medium(2), High(3) sensitivity to compound",Leukemia SR CL7019,3
same,"classification of cell line as Low(1), Medium(2), High(3) sensitivity to compound",Melanoma LOX IMVI CL10001,3
same,"classification of cell line as Low(1), Medium(2), High(3) sensitivity to compound",Melanoma M14 CL10014,3
same,"classification of cell line as Low(1), Medium(2), High(3) sensitivity to compound",Melanoma MALME-3M CL10002,2
same,"classification of cell line as Low(1), Medium(2), High(3) sensitivity to compound",Melanoma SK-MEL-2 CL10005,2
same,"classification of cell line as Low(1), Medium(2), High(3) sensitivity to compound",Melanoma SK-MEL-5 CL10007,2
same,"classification of cell line as Low(1), Medium(2), High(3) sensitivity to compound",Melanoma SK-MEL-28 CL10008,1
same,"classification of cell line as Low(1), Medium(2), High(3) sensitivity to compound",Melanoma UACC-62 CL10020,2
same,"classification of cell line as Low(1), Medium(2), High(3) sensitivity to compound",Melanoma UACC-257 CL10021,1
same,"classification of cell line as Low(1), Medium(2), High(3) sensitivity to compound",NSCLC A549/ATCC CL1004,1
same,"classification of cell line as Low(1), Medium(2), High(3) sensitivity to compound",NSCLC EKVX CL1008,1
same,"classification of cell line as Low(1), Medium(2), High(3) sensitivity to compound",NSCLC HOP-62 CL1026,2
same,"classification of cell line as Low(1), Medium(2), High(3) sensitivity to compound",NSCLC HOP-92 CL1029,2
same,sensitivity classification Low(1)/Medium(2)/High(3),NSCLC NCI-H23(I) CL1001,2
same,"classification of cell line as Low(1), Medium(2), High(3) sensitivity to compound",NSCLC NCI-H226 CL1013,1
same,sensitivity classification Low(1)/Medium(2)/High(3),NSCLC NCI-H332M CL1017,2
same,sensitivity classification Low(1)/Medium(2)/High(3),NSCLC NCI-H460 CL1021,2
same,sensitivity classification Low(1)/Medium(2)/High(3),NSCLC NCI-H522 CL1003,2
same,sensitivity classification Low(1)/Medium(2)/High(3),Ovarian IGROV1 CL6010,2
same,sensitivity classification Low(1)/Medium(2)/High(3),Ovarian OVCAR-3 CL6001,3
same,sensitivity classification Low(1)/Medium(2)/High(3),Ovarian OVCAR-4 CL6002,2
same,sensitivity classification Low(1)/Medium(2)/High(3),Ovarian OVCAR-5 CL6003,2
same,sensitivity classification Low(1)/Medium(2)/High(3),Ovarian OVCAR-8 CL6005,2
same,sensitivity classification Low(1)/Medium(2)/High(3),Ovarian SK-OV-3 CL6011,3
same,sensitivity classification Low(1)/Medium(2)/High(3),Prostate DU-145 CL11003,2
same,sensitivity classification Low(1)/Medium(2)/High(3),Prostate PC-3(I) CL11001,2
same,sensitivity classification Low(1)/Medium(2)/High(3),Renal 786-0 CL9018,2
same,sensitivity classification Low(1)/Medium(2)/High(3),Renal A498 CL9013,1
same,sensitivity classification Low(1)/Medium(2)/High(3),Renal ACHN CL9023,2
same,sensitivity classification Low(1)/Medium(2)/High(3),Renal CAKI-1 CL9015,2
same,sensitivity classification Low(1)/Medium(2)/High(3),Renal RXF-393 CL9016,1
same,sensitivity classification Low(1)/Medium(2)/High(3),Renal SN12C CL9008,1
same,sensitivity classification Low(1)/Medium(2)/High(3),Renal TK10 CL9024,2
same,sensitivity classification Low(1)/Medium(2)/High(3),Renal UO-31 CL9004,2
